In this test the target is T1, Q46 protein aggregates (Homo sapiens, UniProt P42858).
T1 construct: fused on or other part: GST at the N-terminus, cut off with thrombin before the test to start aggregation; The wells held aggregated Q46 without GST
T1 sequence (P42858 with tags, fused parts or gaps with the stated changes, form open): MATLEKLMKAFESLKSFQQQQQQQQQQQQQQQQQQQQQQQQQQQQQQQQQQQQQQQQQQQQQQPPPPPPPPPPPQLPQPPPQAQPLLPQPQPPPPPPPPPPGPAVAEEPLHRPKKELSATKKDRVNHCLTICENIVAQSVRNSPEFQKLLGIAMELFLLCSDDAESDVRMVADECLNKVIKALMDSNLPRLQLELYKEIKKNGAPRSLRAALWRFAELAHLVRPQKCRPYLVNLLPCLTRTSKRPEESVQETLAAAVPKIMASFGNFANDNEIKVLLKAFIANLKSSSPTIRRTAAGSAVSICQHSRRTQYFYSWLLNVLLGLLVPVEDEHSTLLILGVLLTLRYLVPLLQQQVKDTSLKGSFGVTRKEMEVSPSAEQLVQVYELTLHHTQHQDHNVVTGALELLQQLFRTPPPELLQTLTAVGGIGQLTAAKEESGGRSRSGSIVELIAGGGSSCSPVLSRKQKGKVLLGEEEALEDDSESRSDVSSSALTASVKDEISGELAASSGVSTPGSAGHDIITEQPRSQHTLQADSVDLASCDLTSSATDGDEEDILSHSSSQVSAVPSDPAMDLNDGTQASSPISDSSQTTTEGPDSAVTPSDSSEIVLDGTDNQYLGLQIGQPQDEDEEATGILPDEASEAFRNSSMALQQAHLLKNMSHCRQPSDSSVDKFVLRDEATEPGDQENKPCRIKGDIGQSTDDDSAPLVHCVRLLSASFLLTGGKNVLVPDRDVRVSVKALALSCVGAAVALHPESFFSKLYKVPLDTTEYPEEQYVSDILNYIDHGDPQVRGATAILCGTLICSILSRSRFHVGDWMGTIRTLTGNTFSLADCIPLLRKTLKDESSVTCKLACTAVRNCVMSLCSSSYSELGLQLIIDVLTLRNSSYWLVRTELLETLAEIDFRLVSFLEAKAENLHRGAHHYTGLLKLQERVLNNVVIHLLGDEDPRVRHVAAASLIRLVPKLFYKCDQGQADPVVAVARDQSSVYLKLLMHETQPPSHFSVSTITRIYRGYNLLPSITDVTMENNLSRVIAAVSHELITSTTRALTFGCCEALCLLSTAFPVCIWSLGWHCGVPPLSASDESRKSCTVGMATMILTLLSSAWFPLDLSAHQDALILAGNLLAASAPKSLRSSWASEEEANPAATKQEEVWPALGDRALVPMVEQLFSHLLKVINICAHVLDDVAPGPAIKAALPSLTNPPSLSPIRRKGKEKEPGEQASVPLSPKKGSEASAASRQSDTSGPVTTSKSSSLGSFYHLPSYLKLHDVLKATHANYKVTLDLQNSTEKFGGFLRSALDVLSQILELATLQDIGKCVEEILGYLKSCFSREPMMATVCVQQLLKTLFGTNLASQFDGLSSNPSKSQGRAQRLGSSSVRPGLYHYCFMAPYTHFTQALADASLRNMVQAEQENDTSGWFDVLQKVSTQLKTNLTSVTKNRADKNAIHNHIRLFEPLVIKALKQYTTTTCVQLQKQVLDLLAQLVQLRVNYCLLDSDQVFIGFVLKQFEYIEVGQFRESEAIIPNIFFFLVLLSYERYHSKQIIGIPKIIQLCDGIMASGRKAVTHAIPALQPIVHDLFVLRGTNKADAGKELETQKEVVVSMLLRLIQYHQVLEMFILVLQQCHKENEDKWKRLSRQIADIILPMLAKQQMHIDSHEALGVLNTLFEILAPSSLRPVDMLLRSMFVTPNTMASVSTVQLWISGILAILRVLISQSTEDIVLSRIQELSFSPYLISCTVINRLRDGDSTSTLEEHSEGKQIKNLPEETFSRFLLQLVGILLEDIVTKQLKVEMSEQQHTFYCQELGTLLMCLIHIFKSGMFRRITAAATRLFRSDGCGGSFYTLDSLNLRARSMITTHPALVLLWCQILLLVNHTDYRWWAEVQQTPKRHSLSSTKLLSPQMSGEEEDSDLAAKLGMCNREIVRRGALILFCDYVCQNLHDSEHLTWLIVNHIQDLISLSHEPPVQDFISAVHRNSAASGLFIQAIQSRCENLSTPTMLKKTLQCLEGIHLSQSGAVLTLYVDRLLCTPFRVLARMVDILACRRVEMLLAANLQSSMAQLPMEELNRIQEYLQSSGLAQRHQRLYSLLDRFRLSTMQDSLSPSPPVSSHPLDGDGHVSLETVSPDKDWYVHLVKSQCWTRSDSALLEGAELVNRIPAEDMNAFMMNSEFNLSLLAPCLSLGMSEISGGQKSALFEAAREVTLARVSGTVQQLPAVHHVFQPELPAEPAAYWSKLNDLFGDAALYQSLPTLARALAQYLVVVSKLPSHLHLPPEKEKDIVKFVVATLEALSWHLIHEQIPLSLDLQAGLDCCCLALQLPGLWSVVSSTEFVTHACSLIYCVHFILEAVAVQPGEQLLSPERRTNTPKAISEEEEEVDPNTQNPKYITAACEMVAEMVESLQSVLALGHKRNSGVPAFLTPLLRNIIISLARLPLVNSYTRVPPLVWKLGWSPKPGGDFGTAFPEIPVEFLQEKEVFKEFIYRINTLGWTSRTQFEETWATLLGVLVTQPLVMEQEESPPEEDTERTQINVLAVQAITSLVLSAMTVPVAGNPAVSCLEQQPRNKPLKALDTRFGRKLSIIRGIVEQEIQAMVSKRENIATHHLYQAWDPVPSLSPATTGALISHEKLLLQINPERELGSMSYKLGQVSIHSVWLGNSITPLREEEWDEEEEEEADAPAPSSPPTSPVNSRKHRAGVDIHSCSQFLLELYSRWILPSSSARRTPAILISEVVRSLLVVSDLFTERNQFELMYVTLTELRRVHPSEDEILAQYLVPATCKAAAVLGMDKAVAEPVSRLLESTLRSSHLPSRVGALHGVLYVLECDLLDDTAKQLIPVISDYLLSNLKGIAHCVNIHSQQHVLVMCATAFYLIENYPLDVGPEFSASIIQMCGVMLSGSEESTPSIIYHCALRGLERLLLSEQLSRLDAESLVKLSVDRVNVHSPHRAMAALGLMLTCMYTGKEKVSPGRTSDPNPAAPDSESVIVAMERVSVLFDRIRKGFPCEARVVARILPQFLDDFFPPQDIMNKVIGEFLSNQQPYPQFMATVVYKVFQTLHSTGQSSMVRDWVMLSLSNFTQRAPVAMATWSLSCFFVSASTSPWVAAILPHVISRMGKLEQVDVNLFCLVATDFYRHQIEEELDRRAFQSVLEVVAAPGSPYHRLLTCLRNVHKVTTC
Kind of test: Q46 radioligand binding assay (RBA). The conditions noted are these: 10 nM ligand [3H3]MK-3328. A digest of the protocol:
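Aggregates from thrombin-cleaved GST-Q46 (16 h, 37° C) at 5 μM monomer-equivalent were pre-incubated 20 min at room temperature with compound (1 μM to 30 pM) in 150 mM NaCl, 50 mM Tris pH 8.0, then 60 min at 37° C with 10 nM [^3H3]MK-3328. Bound radioactivity was filtered and counted; IC50 came from a four-parameter global fit normalized to vehicle and 3 μM unlabelled MK-3328.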
A word on the IC50: it is the midpoint of a concentration-inhibition curve. A higher IC50 goes with weaker potency. The molecule `COc1ccc(COc2ccc3oc(-c4cccnc4)nc3c2)nc1` [5-[(5-methoxypyridin-2-yl)methoxy]-2-(pyridin-3-yl)-1,3-benzoxazole] had a half-maximal inhibitory concentration (IC50) of less than 100 nM.

On to `COc1ncc(-c2ccc3oc(-c4cccnc4)nc3c2)cn1` [5-(2-methoxypyrimidin-5-yl)-2-(pyridin-3-yl)-1,3-benzoxazole], for which the concentration for half-maximal inhibition (IC50) is 100 to 500 nM.

Take `COc1ccc(COc2ccc3oc(N4CCc5cccnc5C4)nc3c2)nc1` [7-{5-[(5-methoxypyridin-2-yl)methoxy]-1,3-benzoxazol-2-yl}-5,6,7,8-tetrahydro-1,7-naphthyridine]: the half-inhibitory concentration (IC50) was less than 100 nM.

The molecule `COc1ccnc(C(=O)Nc2ccc3oc(-c4cccnc4)nc3c2)c1` [4-methoxy-N-[2-(pyridin-3-yl)-1,3-benzoxazol-5-yl]pyridine-2-carboxamide] displayed a 50% inhibitory concentration (IC50) of less than 100 nM.

`Cn1cc(COc2ccc3oc(-c4cccnc4)nc3c2)cn1` [5-[(1-methyl-1H-pyrazol-4-yl)methoxy]-2-(pyridin-3-yl)-1,3-benzoxazole]: the 50% inhibitory concentration (IC50) was in the range of 100 to 500 nM.

Molecule `COc1cnc(-c2ccc3oc(-c4cccnc4)nc3c2)cn1` [5-(5-methoxypyrazin-2-yl)-2-(pyridin-3-yl)-1,3-benzoxazole] gave an IC50 of less than 100 nM.

For the molecule `COc1cnc(-c2ccc3oc(-c4cccnc4)nc3c2)nc1` [5-(5-methoxypyrimidin-2-yl)-2-(pyridin-3-yl)-1,3-benzoxazole], the concentration for half-maximal inhibition (IC50) was less than 100 nM.

On to `O=C(Nc1ccc2oc(-c3cccnc3)nc2c1)c1ccc(-c2ncccn2)cc1` [N-[2-(pyridin-3-yl)-1,3-benzoxazol-5-yl]-4-(pyrimidin-2-yl)benzamide], for which the concentration for half-maximal inhibition (IC50) is less than 100 nM.

Consider `c1cncc(-c2nc3cc(Nc4ccncn4)ccc3o2)c1` [2-(pyridin-3-yl)-N-(pyrimidin-4-yl)-1,3-benzoxazol-5-amine], for which the IC50 is less than 100 nM.

`COc1ccc(-c2nc3cc(NC(=O)c4ccccc4OC)ccc3o2)cc1` [2-methoxy-N-[2-(4-methoxyphenyl)-1,3-benzoxazol-5-yl]benzamide] gave an IC50 of less than 100 nM.

`BrC1=C(c2cc3cc(OCc4cccnc4)ccc3o2)N2CCN=C2S1` [3-{[(2-{2-bromo-5H,6H-imidazo[2,1-b][1,3]thiazol-3-yl}-1-benzofuran-5-yl)oxy]methyl}pyridine] registered a 50% inhibitory concentration (IC50) of less than 100 nM.

Take `Cn1nc(COc2cnc3oc(-c4cccnc4)nc3c2)ccc1=O` [2-methyl-6-({[2-(pyridin-3-yl)-[1,3]oxazolo[5,4-b]pyridin-6-yl]oxy}methyl)-2,3-dihydropyridazin-3-one]: the IC50 was 100 to 500 nM.

With `COc1ccc(-c2ccc3oc(-c4cccnc4)nc3c2)nc1` [5-(5-methoxypyridin-2-yl)-2-(pyridin-3-yl)-1,3-benzoxazole], the IC50 was in the range of 100 to 500 nM.

Consider `COc1ccc(COc2ccc3oc(-c4ccncc4C#N)cc3c2)nc1` [4-{5-[(5-methoxypyridin-2-yl)methoxy]-1-benzofuran-2-yl}pyridine-3-carbonitrile], for which the concentration for half-maximal inhibition (IC50) is less than 100 nM.

Regarding `COc1ccc(COc2ccc3oc(N4CCc5nc[nH]c5C4)nc3c2)nc1` [2-{3H,4H,5H,6H,7H-imidazo[4,5-c]pyridin-5-yl}-5-[(5-methoxypyridin-2-yl)methoxy]-1,3-benzoxazole], the half-inhibitory concentration (IC50) was less than 100 nM.

As for `O=c1cnc(COc2ccc3oc(-c4cccnc4)nc3c2)c[nH]1` [5-({[2-(pyridin-3-yl)-1,3-benzoxazol-5-yl]oxy}methyl)-1,2-dihydropyrazin-2-one], the IC50 is 100 to 500 nM.

For the molecule `COc1ccc(-c2nc3cc(NC(=O)c4cccc(OC)c4)ccc3o2)cc1` [3-methoxy-N-[2-(4-methoxyphenyl)-1,3-benzoxazol-5-yl]benzamide], the half-maximal inhibitory concentration (IC50) was less than 100 nM.

Molecule `COc1cncc(C(=O)Nc2ccc3oc(-c4ccc(=O)n(C)n4)nc3c2)c1` [5-methoxy-N-[2-(1-methyl-6-oxo-1,6-dihydropyridazin-3-yl)-1,3-benzoxazol-5-yl]pyridine-3-carboxamide] came in with a half-maximal inhibitory concentration (IC50) of less than 100 nM.

In the case of `O=C(Nc1ccc2oc(-c3cccnc3)nc2c1)c1ccc(Oc2ccccc2)nc1` [6-phenoxy-N-[2-(pyridin-3-yl)-1,3-benzoxazol-5-yl]pyridine-3-carboxamide], the IC50 is less than 100 nM.

As to `COc1ccc(COc2ccc3oc(-c4ccc(=O)n(C)c4)nc3c2)nc1` [5-{5-[(5-methoxypyridin-2-yl)methoxy]-1,3-benzoxazol-2-yl}-1-methyl-1,2-dihydropyridin-2-one], the 50% inhibitory concentration (IC50) is less than 100 nM.

Molecule `COc1ccc(COc2ccc3oc(-c4ccc(C(F)(F)F)nc4)nc3c2)nc1` [5-[(5-methoxypyridin-2-yl)methoxy]-2-[6-(trifluoromethyl)pyridin-3-yl]-1,3-benzoxazole] displayed a half-maximal inhibitory concentration (IC50) of less than 100 nM.

`N#Cc1cnccc1-c1cc2cc(OCc3cnn(CCO)c3)ccc2o1` [4-(5-{[1-(2-hydroxyethyl)-1H-pyrazol-4-yl]methoxy}-1-benzofuran-2-yl)pyridine-3-carbonitrile]: the IC50 was less than 100 nM.

In the case of `COc1ccc(COc2ccc3oc(-c4cccc(OCc5ccccc5)c4)nc3c2)nc1` [2-[3-(benzyloxy)phenyl]-5-[(5-methoxypyridin-2-yl)methoxy]-1,3-benzoxazole], the half-maximal inhibitory concentration (IC50) was less than 100 nM.

In turn, `COc1ccc2c(c1)CCN(c1ccc3oc(-c4cccnc4)nc3c1)C2=O` [6-methoxy-2-[2-(pyridin-3-yl)-1,3-benzoxazol-5-yl]-1,2,3,4-tetrahydroisoquinolin-1-one] returned an IC50 of 100 to 500 nM.

`COc1ccc(COc2ccc3oc(-c4ccc5occc5c4)nc3c2)nc1` [2-(1-benzofuran-5-yl)-5-[(5-methoxypyridin-2-yl)methoxy]-1,3-benzoxazole] showed an IC50 of less than 100 nM.

With `CNC(=O)c1ccc(-c2nc3cc(OCc4ccc(OC)cn4)cnc3o2)cn1` [5-{6-[(5-methoxypyridin-2-yl)methoxy]-[1,3]oxazolo[5,4-b]pyridin-2-yl}-N-methylpyridine-2-carboxamide], the half-maximal inhibitory concentration (IC50) was less than 100 nM.

The molecule `COc1cc(C(=O)Nc2ccc3oc(-c4cccnc4)nc3c2)on1` [3-methoxy-N-[2-(pyridin-3-yl)-1,3-benzoxazol-5-yl]-1,2-oxazole-5-carboxamide] returned an IC50 of less than 100 nM.

The molecule `C1=C(COc2ccc3oc(-c4cccnc4)nc3c2)N2CCN=C2S1` [5-{5H,6H-imidazo[2,1-b][1,3]thiazol-3-ylmethoxy}-2-(pyridin-3-yl)-1,3-benzoxazole] displayed an IC50 of 100 to 500 nM.

In the case of `CNCc1ccc(COc2ccc3oc(-c4cccnc4)nc3c2)cc1` [methyl({[4-({[2-(pyridin-3-yl)-1,3-benzoxazol-5-yl]oxy}methyl)phenyl]methyl})amine], the IC50 is 100 to 500 nM.

With `COc1ccc(COc2ccc3oc(-c4cccnn4)nc3c2)nc1` [5-[(5-methoxypyridin-2-yl)methoxy]-2-(pyridazin-3-yl)-1,3-benzoxazole], the IC50 was less than 100 nM.

`c1cncc(-c2nc3cc(OCc4ccc(OCCN5CCOCC5)cn4)ccc3o2)c1` [5-({5-[2-(morpholin-4-yl)ethoxy]pyridin-2-yl}methoxy)-2-(pyridin-3-yl)-1,3-benzoxazole]: the IC50 was less than 100 nM.

`O=C(Nc1ccc2oc(-c3cccnc3)nc2c1)c1cnc2ccccc2n1` [N-[2-(pyridin-3-yl)-1,3-benzoxazol-5-yl]quinoxaline-2-carboxamide] returned a 50% inhibitory concentration (IC50) of less than 100 nM.

The molecule `O=C(Nc1ccc2oc(-c3cccnc3)nc2c1)c1cccc(OCc2ccccc2)c1` [3-(benzyloxy)-N-[2-(pyridin-3-yl)-1,3-benzoxazol-5-yl]benzamide] had an IC50 of less than 100 nM.

`COc1ccc(C(=O)Nc2ccc3oc(-c4cccc(C)c4)nc3c2)cc1` [4-methoxy-N-[2-(3-methylphenyl)-1,3-benzoxazol-5-yl]benzamide] came in with an IC50 of less than 100 nM.

Molecule `COc1ccc(C(=O)Nc2ccc3oc(-c4cccc(C)c4)nc3c2)nc1` [5-methoxy-N-[2-(3-methylphenyl)-1,3-benzoxazol-5-yl]pyridine-2-carboxamide] gave an IC50 of less than 100 nM.

Molecule `CNCc1cncc(-c2nc3cc(OCc4ccc(OC)cn4)ccc3o2)c1` [[(5-{5-[(5-methoxypyridin-2-yl)methoxy]-1,3-benzoxazol-2-yl}pyridin-3-yl)methyl](methyl)amine] registered an IC50 of less than 100 nM.

Molecule `COc1ccc2c(c1)CN(c1cnc3oc(-c4cccnc4)nc3c1)C2=O` [5-methoxy-2-[2-(pyridin-3-yl)-[1,3]oxazolo[5,4-b]pyridin-6-yl]-2,3-dihydro-1H-isoindol-1-one] gave an IC50 of less than 100 nM.

Consider `COc1ccc(COc2ccc3oc([C@H]4Cc5ccccc5O4)nc3c2)nc1` [2-[(2R)-2,3-dihydro-1-benzofuran-2-yl]-5-[(5-methoxypyridin-2-yl)methoxy]-1,3-benzoxazole], for which the IC50 was less than 100 nM.

With `COc1ccc(C(=O)Nc2ccc3oc(-c4cccc(C)c4)nc3c2)cn1` [6-methoxy-N-[2-(3-methylphenyl)-1,3-benzoxazol-5-yl]pyridine-3-carboxamide], the concentration for half-maximal inhibition (IC50) is less than 100 nM.

Consider `COc1ccc(/C=C/c2nc3cc(OCc4ccc(OC)cn4)ccc3o2)cc1` [2-[(E)-2-(4-methoxyphenyl)ethenyl]-5-[(5-methoxypyridin-2-yl)methoxy]-1,3-benzoxazole], for which the half-inhibitory concentration (IC50) is less than 100 nM.

The molecule `COc1ccc(/C=C\c2cnc3oc(-c4cccnc4)nc3c2)cc1` [3-{6-[(Z)-2-(4-methoxyphenyl)ethenyl]-[1,3]oxazolo[5,4-b]pyridin-2-yl}pyridine] yielded a concentration for half-maximal inhibition (IC50) of less than 100 nM.

Regarding `COc1ccc(COc2cnc3oc(-c4cccnc4)nc3c2)nc1` [3-{6-[(5-methoxypyridin-2-yl)methoxy]-[1,3]oxazolo[5,4-b]pyridin-2-yl}pyridine], the IC50 is less than 100 nM.

With `O=C(Nc1ccc2oc(-c3cccnc3)nc2c1)c1cc(O)ccn1` [4-hydroxy-N-[2-(pyridin-3-yl)-1,3-benzoxazol-5-yl]pyridine-2-carboxamide], the IC50 was in the range of 100 to 500 nM.

As to `COc1ccc(COc2ccc3oc(-c4ccc5ccccc5n4)nc3c2)nc1` [2-{5-[(5-methoxypyridin-2-yl)methoxy]-1,3-benzoxazol-2-yl}quinoline], the IC50 is less than 100 nM.
